Usually GI50 stands for the concentration giving 50% growth inhibition. A high value points to lower sensitivity of the cells. By MIC is commonly meant the smallest concentration in the dilution series that meets the test's criterion for growth inhibition.

≈ marks a conversion by molar mass, not a printed value.

In test [1] the test system is Staphylococcus aureus. Put plainly: Antimicrobial activity against Staphylococcus aureus ATCC 25923 assessed as zone of inhibition at 100 ug/ml after 24 hrs by disc diffusion method. Format: functional. The note with it: ATCC 25923, 24 h, read-out: IZ. For orientation: A growth-free zone around the sample is the usual read-out of agar diffusion tests.
For test [2], the system named is Klebsiella pneumoniae. Briefly: Antimicrobial activity against Klebsiella pneumoniae ATCC 700603 assessed as zone of inhibition at 100 ug/ml after 24 hrs by disc diffusion method. Particulars: ATCC 700603, 24 h, read-out: IZ. Format: functional.
The test system of test [3] is Streptococcus agalactiae. Put plainly: Antimicrobial activity against Streptococcus agalactiae 55118 assessed as zone of inhibition at 100 ug/ml after 24 hrs by disc diffusion method. Format: functional. The note with it: Streptococcus agalactiae, 55118, 24 h; read-out: IZ.
Test [4] deals with SiHa. Put plainly: Growth inhibition of human SiHa cells. Format: functional.
Test [5] has as its system MDA-MB-231. Put plainly: Growth inhibition of human MDA-MB-231 cells. Format: functional.
For test [6], the system named is PANC-1. Briefly: Growth inhibition of human PANC1 cells. Format: functional.
The test system of test [7] is Escherichia coli. Put plainly: Antimicrobial activity against Escherichia coli. Format: functional.
The subject of test [8] is Bacillus subtilis. Briefly: Antimicrobial activity against Bacillus subtilis. Format: functional.
The subject of test [9] is Salmonella typhimurium. Put plainly: Antimicrobial activity against Salmonella typhimurium. Format: functional, Salmonella enterica subsp. enterica serovar Typhimurium. The note with it: Salmonella enterica.
Test [10] relates to Priestia megaterium. Briefly: Antimicrobial activity against Bacillus megaterium. Format: functional.
For test [11], the system named is Micrococcus luteus. Put plainly: Antibacterial activity against Micrococcus luteus. Format: functional.
Test [12] concerns Staphylococcus aureus. Put plainly: Antibacterial activity against methicillin resistant Staphylococcus aureus N315 after 24 hrs by two-fold broth serial dilution method. Format: functional. The note with it: N315, 24 h.
Test [13] concerns Bacillus subtilis. Briefly: Antibacterial activity against Bacillus subtilis ATCC 21216 after 24 hrs by two-fold broth serial dilution method. Format: functional. Particulars: ATCC 21216, 24 h.
The subject of test [14] is Micrococcus luteus. Put plainly: Antibacterial activity against Micrococcus luteus ATCC 4698 after 24 hrs by two-fold broth serial dilution method. The note with it: ATCC 4698, 24 h. Format: functional.
In test [15] the test system is Escherichia coli. Put plainly: Antimicrobial activity against Escherichia coli JM 109 after 24 hrs by two-fold broth serial dilution method. Format: functional. Particulars: JM 109, 24 h.
Test [16] relates to Pseudomonas aeruginosa. Put plainly: Antimicrobial activity against Pseudomonas aeruginosa ATCC 27853 after 24 hrs by two-fold broth serial dilution method. Format: functional. The note with it: ATCC 27853, 24 h.
For test [17], the system named is Shigella dysenteriae. Briefly: Antimicrobial activity against Shigella dysenteriae after 24 hrs by two-fold broth serial dilution method. Format: functional.
Test [18] concerns Candida albicans. Briefly: Antifungal activity against Candida albicans ATCC 76615 after 24 hrs. Particulars: ATCC 76615, 24 h. Format: functional.
The test system of test [19] is Cyberlindnera jadinii. Briefly: Antifungal activity against Candida utilis after 24 hrs. Format: functional. Particulars: Williopsis jadinii.
Test [20] relates to Aspergillus flavus. Put plainly: Antifungal activity against Aspergillus flavus after 24 hrs. Format: functional.
Test [21] has as its system Saccharomyces cerevisiae. Put plainly: Antifungal activity against Saccharomyces cerevisiae after 24 hrs. Format: functional.
The test system of test [22] is Pichia norvegensis. Put plainly: Antifungal activity against Candida mycoderma after 24 hrs. Format: functional.

Take `CCCn1nnnc1Sc1c(OC)nc(N)nc1OC`: the zone of inhibition at 100 µg/mL in test [1], in test [2] and in test [3] was 24 mm in each case.

In the case of `CCn1cc(C(=O)O)c(=O)c2cnc(N3CCN(C(=O)CCSc4nnnn4-c4ccc(Br)cc4)CC3)nc21`, the GI50 in test [4], in [5] and in test [6] was 70 to 220 nM each time.

Regarding `CCn1nnnc1SCCC(=O)N1CCN(c2cc3c(cc2F)c(=O)c(C(=O)O)cn3C2CC2)CC1`, the minimal inhibitory concentration (MIC) in test [7], in [8], in test [9], in [10] and in test [11] was 15.6 µg/mL (≈ 30.3 µM) in each case. For the same compound, the GI50 in test [4], in test [5] and in test [6] was ≤ 1000 nM each time.

Take `Cc1cc(=O)oc2cc(OCC(O)Cn3nnnc3C)ccc12` (configuration not stated): the MIC in test [12], in test [13], in [14], in test [15], in [16] and in [17] was 4 to 512 µg/mL (≈ 12.6 to 1620 µM) each time. The MIC in test [18], in test [19], in test [20], in test [21] and in [22] was 4 to 512 µg/mL (≈ 12.6 to 1620 µM) throughout.

For the compound `COc1cc(-n2nnnc2SCCC(=O)N2CCN(c3cc4c(cc3F)c(=O)c(C(=O)O)cn4C3CC3)CC2)cc(OC)c1OC`, the minimum inhibitory concentration (MIC) in [7], in test [8], in test [9], in [10] and in test [11] was 15.6 µg/mL (≈ 23.9 µM) in each case. Also, the GI50 in test [4], in test [5] and in [6] was ≤ 1000 nM in each case.

`COc1nc(N)nc(OC)c1Sc1nnnn1CC1CCCCC1`: the zone of inhibition at 100 µg/mL in test [1], in [2] and in test [3] was 10 to 24 mm throughout.

Turning to `O=C(O)c1cn(C2CC2)c2cc(N3CCN(C(=O)CCSc4nnnn4-c4ccc(F)c(F)c4F)CC3)c(F)cc2c1=O`, the MIC in test [7], in test [8], in [9], in test [10] and in [11] was 15.6 µg/mL (≈ 25.3 µM) each time. The GI50 in test [4], in test [5] and in test [6] was ≤ 1000 nM throughout.

With `CCCCn1nnnc1Sc1c(OC)nc(N)nc1OC`, the zone of inhibition at 100 µg/mL in [1], in test [2] and in test [3] was 10 to 24 mm throughout.

For `O=C(O)c1cn(C2CC2)c2cc(N3CCN(C(=O)CCSc4nnnn4Cc4ccccc4)CC3)c(F)cc2c1=O`, the MIC in [7], in test [8], in [9], in test [10] and in test [11] was 15.6 µg/mL (≈ 27 µM) each time. The GI50 in test [4], in test [5] and in [6] was ≤ 1000 nM each time.

As to `O=C(O)c1cn(C2CC2)c2cc(N3CCN(C(=O)CCSc4nnnn4-c4ccc(C(F)(F)F)cc4)CC3)c(F)cc2c1=O`, the MIC in test [7], in test [8], in test [9], in test [10] and in test [11] was 15.6 µg/mL (≈ 24.7 µM) in each case. Moreover, the concentration for 50% growth inhibition (GI50) in test [4], in test [5] and in test [6] was ≤ 1000 nM throughout.

For the compound `O=C(O)c1cn(C2CC2)c2cc(N3CCN(C(=O)CCSc4nnnn4-c4ccccc4)CC3)c(F)cc2c1=O`, the MIC in test [7], in test [8], in test [9], in [10] and in [11] was 15.6 µg/mL (≈ 27.7 µM) each time. The 50% growth inhibitory concentration (GI50) in [4], in [5] and in [6] was ≤ 1000 nM each time.

`Cc1cc(=O)oc2cc(OCC(O)Cn3cnnn3)ccc12` (configuration not stated): the MIC in test [12], in test [13], in test [14], in test [15], in [16] and in test [17] was 8 to 512 µg/mL (≈ 26.5 to 1690 µM) throughout. Also, the MIC in test [18], in test [19], in test [20], in [21] and in test [22] was 8 to 512 µg/mL (≈ 26.5 to 1690 µM) each time.

The values above are taken from ChEMBL document CHEMBL4342421, “Current scenario of tetrazole hybrids for antibacterial activity” (Eur J Med Chem, 2019).
